Tested on: hCoV-229E
Assay: microbe, parasite or virus in culture
Conditions: Human coronavirus 229E, MRC5, read-out: cell viability

## CCC(CC)COC(=O)[C@H](C)N[P@](=O)(OC[C@H]1O[C@@](C#N)(c2ccc3c(N)ncnn23)[C@H](O)[C@@H]1O)Oc1ccccc1 [remdesivir]
  viability at 5 µM: 92%

— patent US20210246019A1, “PEPTIDE/LIPID-ASSOCIATED NUCLEIC ACIDS (PLANA) FOR NUCLEIC ACID DELIVERY” (priority 2020, published 2021)
